# Results: PubChem BioAssay (NCI)
#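 1) Cells in 96-well plates. 2) Compound, 48 h, 5 concentrations. 3) Linear interpolation between surrounding doses. 4) Unreached endpoint = highest concentration. Here, GI50 denotes the concentration required for 50% inhibition of growth. TGI denotes the concentration required for complete inhibition of growth.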
# Key:
# Assay in all cases: NCI-60 cell line screen, 48 h
# BT-549 breast = tested on: BT-549 breast
# NCI-H226 lung = tested on: NCI-H226 lung
# SN12C renal = tested on: SN12C renal
# UO-31 renal = tested on: UO-31 renal
# CAKI-1 renal = tested on: CAKI-1 renal
# MALME-3M melanoma = tested on: MALME-3M melanoma
# SNB-19 CNS = tested on: SNB-19 CNS
# OVCAR-4 ovarian = tested on: OVCAR-4 ovarian
# OVCAR-5 ovarian = tested on: OVCAR-5 ovarian
# SF-268 CNS = tested on: SF-268 CNS
Compound,GI50 (BT-549 breast),TGI (BT-549 breast),GI50 (NCI-H226 lung),TGI (NCI-H226 lung),GI50 (SN12C renal),TGI (SN12C renal),GI50 (UO-31 renal),TGI (UO-31 renal),GI50 (CAKI-1 renal),TGI (CAKI-1 renal),GI50 (MALME-3M melanoma),TGI (MALME-3M melanoma),GI50 (SNB-19 CNS),TGI (SNB-19 CNS),GI50 (OVCAR-4 ovarian),TGI (OVCAR-4 ovarian),GI50 (OVCAR-5 ovarian),TGI (OVCAR-5 ovarian),GI50 (SF-268 CNS),TGI (SF-268 CNS)
Nc1cccc2c1C(=O)N(C1CCC(=O)NC1=O)C2=O (centres undefined),> 100 µM,> 100 µM,> 100 µM,> 100 µM,> 100 µM,> 100 µM,> 100 µM,> 100 µM,> 100 µM,> 100 µM,> 100 µM,> 100 µM,> 100 µM,> 100 µM,> 100 µM,> 100 µM,> 100 µM,> 100 µM,> 100 µM,> 100 µM
Cn1cc(-c2ccc(=O)n(Cc3cccc(-c4ncc(OCCN5CCOCC5)cn4)c3)n2)cn1,32.1 µM,> 100 µM,23.5 µM,> 100 µM,> 69.4 µM,> 100 µM,64.8 µM,> 100 µM,> 79.7 µM,> 100 µM,> 54.9 µM,> 100 µM,> 87.4 µM,> 100 µM,33.5 µM,> 100 µM,> 100 µM,> 100 µM,> 100 µM,> 100 µM
CCCCCCCCCCCCc1ccc(C(=O)/C=C/C(=O)O)cc1,1.91 µM,5.33 µM,1.59 µM,3.14 µM,1.83 µM,4.14 µM,1.63 µM,3.01 µM,1.76 µM,3.58 µM,1.82 µM,3.6 µM,7.07 µM,22 µM,2.06 µM,4.46 µM,10.3 µM,23.1 µM,2.64 µM,8.28 µM
O=C1C2CC(Cl)C(SSC3CC4C(=O)N(SC(Cl)(Cl)C(Cl)Cl)C(=O)C4CC3Cl)CC2C(=O)N1SC(Cl)(Cl)C(Cl)Cl (centres undefined),,3.41 µM,,26.4 µM,,5.24 µM,,4.82 µM,,6.7 µM,,2.86 µM,,12.7 µM,,4.31 µM,,66.3 µM,,3.91 µM
COc1ccccc1C(=O)/C=C/c1cc2cccc(OC)c2[nH]c1=O,0.112 µM,1.37 µM,0.0716 µM,3.47 µM,0.079 µM,2.64 µM,0.115 µM,1.68 µM,0.0241 µM,1.54 µM,0.0511 µM,4.6 µM,0.0332 µM,1.47 µM,0.314 µM,8.37 µM,0.321 µM,2.89 µM,0.0935 µM,2.06 µM
COc1ccc(N(C)c2nc(C)nc3ccccc23)cc1,< 0.01 µM,36.9 µM,< 0.01 µM,0.534 µM,< 0.01 µM,> 100 µM,0.0103 µM,60.4 µM,< 0.01 µM,46.4 µM,,39.5 µM,< 0.01 µM,> 100 µM,< 0.01 µM,> 100 µM,< 0.01 µM,> 100 µM,< 0.01 µM,> 34 µM
O=C(c1cccs1)c1c(C(F)(F)F)n([O-])c2ccc(C(F)(F)F)cc2[n+]1=O,0.178 µM,0.34 µM,0.524 µM,1.42 µM,0.195 µM,0.468 µM,0.169 µM,0.318 µM,0.18 µM,0.337 µM,0.552 µM,1.21 µM,1.11 µM,2.53 µM,0.224 µM,0.531 µM,0.205 µM,0.494 µM,0.182 µM,0.355 µM
CC(Cc1ccc(Cl)cc1Cl)NO (centres undefined),,> 100 µM,,> 100 µM,,> 100 µM,,> 100 µM,,> 100 µM,,> 100 µM,,> 100 µM,,> 100 µM,,> 100 µM,,> 100 µM
Nc1nc(N)[n+]([O-])c(N)c1NCO,,> 100 µM,,> 100 µM,,> 100 µM,,> 100 µM,,> 100 µM,,> 100 µM,,> 100 µM,,> 100 µM,,> 100 µM,,> 100 µM
